From paper PMC7984888, “Inhibitory Activity of Pyrroloisoxazolidine Derivatives against Chlamydia trachomatis” (BioMed Research International, 2021)
Like-named read-outs stand apart in the source and are kept apart here.

Assays:
WST-1 cell viability = format: cell-based; settings: human, uninfected HeLa cells, WST-1, relative to DMSO control as 100%
Protocol: (§1) Uninfected HeLa cells were cultured with 32 μM (the highest concentration used in antichlamydial analysis) of individual compound or 0.5% DMSO for 48 h. After 10 μL of WST-1 reagent was added, cells were incubated for an additional 1 h, and absorbance at 450 nm was recorded. The viability of compound-treated cells was calculated by the absorbance relative to that of DMSO control setting as 100% [22].

Uninfected HeLa cells = experiment: WST-1 cell viability; format: cell-based; settings: 32 μM, 48 h
Protocol: as §1

[1] = test system: Chlamydia trachomatis serovar D (strain UW-3/CX); experiment: Infectious progeny inhibition assay, C. trachomatis D; format: cell-based; settings: generation of infectious progeny EBs in HeLa cells, MOI 0.2, 36 hpi, 1 to 32 μM, read-out: IC50 (μM) Mean (95% confidence interval) Ct D
Protocol: Chlamydia trachomatis serovars D (strain UW-3/CX) and L2 (strain 434/Bu) were purchased from ATCC. HeLa cells purchased from ATCC were routinely cultured in DMEM supplemented with 10% heat-inactivated FBS (Sigma-Aldrich) and 10 μg/mL gentamicin at 37°C in a humidified atmosphere of 5% and were used for chlamydial propagation and cell culture experiments. EBs were purified by Renografin density gradient and stored in sucrose-phosphate-glutamate (SPG) buffer at -80°C [20]. A mouse polyclonal anti-MoPn (C. muridarum strain Nigg II) antibody, which was produced in our laboratory and cross-reacting with C. trachomatis D and L2, was used as a primary antibody for both stains detection.
Cell monolayers seeded onto coverslips in a 24-well plate were infected with C. trachomatis at a multiplicity of infection (MOI) of 0.2 inclusion-forming units (IFU) per cell. Unless noted, individual compound was added into culture medium at indicated concentrations simultaneously at the time of inoculation. 0.5% DMSO was used as negative control and 11.25 μM tetracycline (Sigma-Aldrich) as positive control. For C. trachomatis D, an additional centrifugation (900 × g at room temperature for 1 h) was applied to facilitate the infection. At 36 hours postinfection (hpi), infected cells were fixed by precooled methanol and then subjected to sequential staining processed with a primary antibody and a FITC-conjugated secondary antibody. Evans blue was used as cytoplasm counterstain. Images were shot by an Olympus IX51 fluorescence microscope.
Cells monolayers seeded in 48-well plate were infected and treated with chemicals as above. After incubation for 36 hours, infected cells were washed twice, scraped off, and lysed by sonication to release the infectious progeny EBs. Then the lysates were used to reinfect fresh cell monolayers grown in 96-well plate following 1 : 10 serial dilution. The inclusion counts were obtained by immunofluorescence staining as above to calculate the number of infectious progeny EBs in each sample. Percent inhibition was calculated based on EB counts in compound-treated samples relative to DMSO-treated negative control.
Data from the three independent experiments were presented as mean ± standard deviations (SD) and were subjected to pairwise Student's t-tests. p < 0.05 and p < 0.01 are considered statistically significant and statistically highly significant, respectively. The IC50 values, defined as the concentration of compound at which the generation of infectious progeny EBs was reduced by 50% relative to negative control, were calculated by nonlinear regression from percent inhibition data using the GraphPad Prism 5 software, and presented as mean (95% confidence interval).

C. trachomatis L2 [2] = experiment: Host cell pretreatment assay; format: cell-based, Chlamydia trachomatis; settings: 2, 8 and 32 μM, 37°C, 1 h (also 4 h) prior to infection
Protocol: Cells seeded in 48-well plate were incubated with 2, 8, or 32 μM individual compound at 37°C for indicated times. After twice washing with SPG to remove residual compound, cells were infected with EBs at an MOI of 0.2. At 36 hpi, the inclusion count in each well was determined by immunofluorescence staining as above.
Chlamydia trachomatis has a unique EB/RB biphasic life cycle, which offers the infection steps and the intracellular proliferation period for therapeutic intervention. To explore whether the compounds affected the chlamydial infection steps, the HeLa cells or EBs were pretreated with compound prior to infection, and then the influence on EB entry efficiency was analyzed by counting inclusion numbers. Due to the relative easier for culture and shorter developmental cycle, C. trachomatis L2 is commonly represented as a laboratory model for C. trachomatis in cell culture research and is picked for our subsequent mechanism study.
Figure 3 Host cells were not involved in the compounds' antichlamydial activity. HeLa cells were incubated with 2, 8, or 32 μM compound 1 (a) or 2 (b) at 37°C for 1 or 4 h. After washes, cells were infected with EBs. At 36 hpi, the inclusion was counted as described in “Materials and Methods.” Data are presented as mean ± SD of three independent assays.

C. trachomatis L2 [3] = experiment: Withdrawal assay; format: cell-based, Chlamydia trachomatis; settings: progeny EBs at 36 hpi, compared with 36 hpi sample
Protocol: HeLa cells seeded in 48-well plate were infected with C. trachomatis L2 at an MOI of 0.2 and simultaneously treated with 2, 8, or 32 μM of compound. At 2, 12, 24, and 36 hpi, infected cells were washed twice to remove residual inhibitor, and fresh medium was added. At 36 hpi, the production of infectious progeny EBs and percent inhibition data were determined as above.  Figure 6 Withdrawal assay. (a) HeLa cells infected with C. trachomatis L2 were simultaneously treated with 2, 8, or 32 μM individual compound. The compound was removed at 2, 12, 24, or 36 hpi, and the production of progeny EBs was determined at 36 hpi. (b–d) Percent inhibition of progeny EBs was calculated based on data in compound-treated samples relative to DMSO-treated control. Data are presented as mean ± SD of three independent assays. ∗p < 0.05, ∗∗p < 0.01, compared with each 36 hpi positive control sample by Student's t-tests.

C. trachomatis L2 [4] = experiment: Period incubation assay; format: cell-based, Chlamydia trachomatis; settings: progeny EBs at 36 hpi; for Inhibitory effect, treated at 0-2 h: 32 μM, 0-2 h period; for Production of infectious progenies, compound added during the 12-24 h period: 2, 8 or 32 μM
Protocol: HeLa cells seeded in 48-well plate were infected with C. trachomatis L2 at an MOI of 0.2 and treated with 2, 8, or 32 μM of compound during 0-2, 2-12, 12-24, and 24-36 h period. At 36 hpi, the production of infectious progeny EBs and percent inhibition data were determined as above.  Figure 7 Period incubation assay. (a) HeLa cells infected with C. trachomatis L2 were treated with 2, 8, or 32 μM individual compound for indicated times. The production of progeny EBs was determined at 36 hpi. (b–d) Percent inhibition of progeny EBs was calculated based on data in compound-treated samples relative to DMSO-treated control. Data are presented as mean ± SD of three independent assays.

SMILES	viability at 48 h, 32 µM (WST-1 cell viability) [%]	Effect on host cell viability / proliferation activity by WST-1, in words (Uninfected HeLa cells)	IC50 ([1]; Chlamydia trachomatis, HeLa) [µM]	IC50 [1] [µM]	Formation of chlamydial inclusions after pretreatment of HeLa cells (C. trachomatis L2 [2])	Inhibitory effect when chemical was removed after 24 hpi (C. trachomatis L2 [3])	Inhibitory effect when chemical was removed before 12 hpi (C. trachomatis L2 [3])	Inhibitory effect, treated at 0-2 h (C. trachomatis L2 [4])	Production of infectious progenies, compound added during the 12-24 h period (C. trachomatis L2 [4])	Intracellular chlamydial growth, 2-12 h period treatment (C. trachomatis L2 [4])	Infectious progeny EBs, 24-36 h period incubation (C. trachomatis L2 [4])
c1ccc(C2C3CC(c4ccccc4)N(c4ccccc4)C3ON2c2ccccc2)cc1 (stereo not shown) [Compound 1]	101	did not show cytotoxicity	< 10	9.31	did not reduce	relatively well preserved	significantly reduced	weak inhibitory effect	significantly inhibited	partially prevented	partially inhibited
Clc1ccc(N2C(c3ccccc3)CC3C(c4ccccc4)N(c4ccccc4)OC32)cc1 (stereo not shown) [Compound 2]	98.3	did not show cytotoxicity	< 10	9.73	did not reduce	relatively well preserved	significantly reduced	weak inhibitory effect	significantly inhibited	partially prevented	partially inhibited
